From publication PMC5920042, “KH176 Safeguards Mitochondrial Diseased Cells from Redox Stress-Induced Cell Death by Interacting with the Thioredoxin System/Peroxiredoxin Enzyme Machinery” (Scientific Reports, 2018)
“Also recorded” adds a separate entry of the source.

What was measured:
P4 cell line [1] = experiment: Radical-Scavenging Capacity assay (CM-H2DCFDA, H2O2 or KO2); type: cell-based, human; conditions: P4 cells, 100 µM H2O2 or 1 mM KO2 (text: KOH), 3 µM compound
Protocol: Cells were seeded at a density of 4 × 10^3 cells/well into 96-wells black plates. After 24 h the cells were loaded with 5 µM CM-H2DCFDA in M199 without phenol red for 20 min. The dye excess was washed with M199 without phenol red and immediately after, cells were treated acutely with different concentrations of the test compounds in M199 without phenol red. To generate radicals, 100 µM H2O2 or 1 mM KO2 were injected to the compound-treated cells and CM-DCF fluorescence was measured every 2 min for 70 cycles on a scanning microplate reader (BMG FLUOstar Omega; Ex. 480 nm, Em. 520 nm). The area under the generated curves was calculated using the Origin 6.1 software (OriginLab).

P4 cell line [2] = experiment: Cellular ROS assay (DCFH-DA); type: cell-based, human
Protocol: The cells were then treated for 72 h (or shorter as indicated) with culture medium containing semi-logarithmic dilutions of the test compound. Alternatively, 3 × 10^3 cells/well were seeded when cells were treated for 24 h only. At the end of the incubation period, cells were loaded with 40 µM DCFH-DA (#D6883, Sigma-Aldrich). in M199 without phenol red for 30 min. The excess of the dye was washed with ice-cold M199 without phenol red and the cells were lysed with 100 µl/well of ice-cold 0.2% Triton X-100 in M199 without phenol red after 10 min incubation in ice. Cellular debris was spun down by centrifugation at 2600 g, 5 min, +4 °C and 90 µl/well of cell lysate were transferred to a black 96-wells plate and DCF fluorescence was measured on a scanning microplate reader (BMG FLUOstar Omega; Ex. 480 nm, Em. 520 nm).

[3] = test system: primary human skin fibroblasts; experiment: CumOOH induced lipid peroxidation (bodipy 581/591 C11); type: cell-based; conditions: 30 µM cumOOH, bodipy 581/591 C11
Protocol: The cells were seeded at a density of 3 × 10^3 cells/well into 96-wells black plates. After 24 h, the cells were coincubated with 500 nM bodipy 581/591 C11 (#D3861, Thermo Fisher) and different amounts of KH compound in M199 without phenol red. This medium was used in all subsequent washes and incubations. After 30 min. incubation the cells were washed twice and subsequently incubated with 30 μM cumene hydroperoxide (cumOOH). For background subtractions cells with the dye but without cumOOH were used. After 30 minutes incubation and two washes oxidized bodipy 581/591 C11 was quantified on an automated bioimager (BD Pathway 855), by using a 20x objective and Ex. 488/10 nm, Em. FURA/FITC. Total cellular fluorescence per well was normalized on the number of cellular pixels/well and normalized on the incubation with probe and cumOOH but without compound (vehicle set as 100%). Experiments were performed at least three times with 3 wells per experiment.

P4 cell line [4] = experiment: Redox Stress Survival assay (BSO-induced cell death, Calcein AM viability); type: cell-based, human; conditions: P4 cells
Protocol: (§1) Cells were seeded at a density of 4 × 10^3 cells/well into 96-wells black plates and incubated for 24 h. To induce redox stress, semi-logarithmic dilutions of buthionine sulphoximine (BSO, #B2515, Sigma Aldrich) up to 100 µM were added to the cells in culture medium and incubated for 24 h. Cell viability was assessed by quantification of cellular conversion of Calcein AM into fluorescent Calcein. Briefly, after having discarded the BSO containing medium, cells were washed once with M199 without phenol red and loaded with 2 µM Calcein AM (#65-0853-39, Affimetrix eBioscience) in M199 without phenol red for 25 min. At the end of the incubation period, the excess of the dye was washed with M199 without phenol red and Calcein fluorescence was measured with a scanning microplate reader (BMG FLUOstar Omega; Ex. 480 nm, Em. 520 nm). For compound screening and target identification measurements cells were treated with 200 µM BSO alone or in co-incubation with semi-logarithmic dilutions of the test compound. Additionally, where indicated, increasing doses of Auranofin (AFN, #BML-EI206-0100, Enzo) or Aurothioglucose (ATG, #A0606, Sigma Aldrich) were co-incubated with BSO and the test compound. In all cases, cell viability was assessed 24 h after the treatment.

[5] = test system: P6 cell line (Complex I, NDUFS8); experiment: Redox Stress Survival assay (BSO sensitivity); type: cell-based, human; conditions: P6, 24 h
Protocol: as §1

C3 control cell line = experiment: Redox Stress Survival assay (BSO sensitivity); type: cell-based, human; conditions: C3, 24 h
Protocol: as §1

C2 control cell line = experiment: Redox Stress Survival assay (BSO sensitivity); type: cell-based, human; conditions: C2, 24 h
Protocol: as §1

C1 control cell line = experiment: Redox Stress Survival assay (BSO sensitivity); type: cell-based, human; conditions: C1, 24 h
Protocol: as §1

[6] = test system: P2 cell line (Complex I, NDUFS2); experiment: Redox Stress Survival assay (BSO sensitivity); type: cell-based, human; conditions: P2, 24 h
Protocol: as §1

## COc1c(C)c(C)c2c(c1C)CC[C@@](C)(C(=O)N[C@@H]1CCCNC1)O2 [KH176i]
P4 cell line [1]
  Reduction of H2O2-induced radicals and O2.- (CM-H2DCFDA oxidation): not
P4 cell line [2]; P4 cells, 24 h compound treatment
  Activity in the ROS assay: inactive
[3]
  Effect on CumOOH induced lipid peroxidation: no effect; also recorded: no activity
P4 cell line [4]; 200 µM BSO, 24 h
  Rescue of cell viability from BSO-induced death: unable to rescue cell viability

## auranofin [AFN, reference compound]
P4 cell line [2]; 24 hours, 100 nM AFN with 1 µM KH176m, DCFH-DA
  Effect of thioredoxin reductase inhibition on ROS reduction by KH176m: did not affect the capacity of KH176m to reduce the DCFH-DA signal
P4 cell line [4]; 200 µM BSO, 100 nM AFN
  Effect of thioredoxin reductase inhibition on rescue by KH176(m): decrease of the capacity of KH176(m) to rescue the cells

## CCCCS(=N)(=O)CCC(N)C(=O)O (centres unmarked) [BSO, Buthionine sulphoximine]
[5]
  IC50 BSO: n.s.
C3 control cell line
  IC50 BSO: n.s.
C2 control cell line
  IC50 BSO: n.s.
C1 control cell line
  IC50 BSO: n.s.
[6]
  IC50 BSO: n.s.
P4 cell line [4]; 24 h BSO up to 100 µM
  IC50: 3.8 µM

## Cc1c(C)c2c(c(C)c1O)CCC(C)(C(=O)O)O2 (centres unmarked) [Trolox, reference compound]
P4 cell line [2]; Homo sapiens, P4 cells, 72 h treatment
  IC50: 187 µM
P4 cell line [4]; Homo sapiens, 200 µM BSO, 24 h
  EC50: 38 µM
